# ChEMBL document CHEMBL1201862, “PubChem BioAssay data set” (2004)
#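 Each compound was tested at five concentrations against cells in 96-well plates for 48 hours. At the GI50, growth is halved.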 The source made the active and inactive calls. Rule as the data show it: active = GI50 up to about 1.1 µM and inactive = higher.
# How the values were obtained:
# Experiment in all cases: growth of human tumour cells (NCI), 48 h
# Malme-3M = system: Malme-3M
# A549 = system: A549
# SF-295 = system: SF-295
# SK-MEL-2 = system: SK-MEL-2
# RPMI-8226 = system: RPMI-8226
# LOX IMVI = system: LOX IMVI
# A498 = system: A498
# HCC 2998 = system: HCC 2998
# SNB-75 = system: SNB-75
# HOP-92 = system: HOP-92
# NCI-H226 = system: NCI-H226
# CAKI-1 = system: CAKI-1
# ACHN = system: ACHN
# HCT-15 = system: HCT-15
# RXF 393 = system: RXF 393
# SR = system: SR
SMILES,GI50 (Malme-3M),GI50 (A549),GI50 (SF-295),GI50 (SK-MEL-2),GI50 (RPMI-8226),GI50 (LOX IMVI),GI50 (A498),GI50 (HCC 2998),GI50 (SNB-75),GI50 (HOP-92),GI50 (NCI-H226),GI50 (CAKI-1),GI50 (ACHN),GI50 (HCT-15) [µM],GI50 (RXF 393),GI50 (SR)
Cc1cccc(NC(=O)/C=C/c2ccc(N(CCC#N)CCC#N)cc2C)c1,> 100 µM (inactive),> 100 µM (inactive),> 100 µM (inactive),> 100 µM (inactive),> 100 µM (inactive),43.7 µM (inactive),> 100 µM (inactive),> 100 µM (inactive),54.5 µM (inactive),> 100 µM (inactive),> 100 µM (inactive),> 100 µM (inactive),70.3 µM (inactive),29,,
CCOC(=O)CSc1cc[nH]c(=O)n1,> 100 µM (inactive),> 100 µM (inactive),> 100 µM (inactive),> 100 µM (inactive),> 100 µM (inactive),> 100 µM (inactive),> 100 µM (inactive),,> 100 µM (inactive),,,> 100 µM (inactive),> 100 µM (inactive),> 100,31.6 µM (inactive),
CCCCNC(=O)OCC(COc1ccccc1OC)OC(=O)NCCCC (stereo unspecified),> 100 µM (inactive),> 100 µM (inactive),> 100 µM (inactive),> 100 µM (inactive),95.9 µM (inactive),> 100 µM (inactive),> 100 µM (inactive),> 100 µM (inactive),96.6 µM (inactive),,> 100 µM (inactive),> 100 µM (inactive),> 100 µM (inactive),> 100,> 100 µM (inactive),
COC(=O)N(C(=O)OC)C(C(=O)O)C(C)C (stereo unspecified),,> 100 µM (inactive),> 100 µM (inactive),> 100 µM (inactive),,> 100 µM (inactive),,> 100 µM (inactive),> 100 µM (inactive),95.9 µM (inactive),> 100 µM (inactive),> 100 µM (inactive),> 100 µM (inactive),,65 µM (inactive),
Cn1cc(-c2ccc3c4ccccc4n(C)c3c2)c2ccccc21,> 100 µM (inactive),> 100 µM (inactive),94.4 µM (inactive),> 100 µM (inactive),> 100 µM (inactive),> 100 µM (inactive),> 100 µM (inactive),> 100 µM (inactive),> 100 µM (inactive),,> 100 µM (inactive),> 100 µM (inactive),> 100 µM (inactive),36.6,> 100 µM (inactive),
CS(=O)(=O)NNS(=O)(=O)c1cccc([N+](=O)[O-])c1,> 100 µM (inactive),> 100 µM (inactive),> 100 µM (inactive),> 100 µM (inactive),> 100 µM (inactive),> 100 µM (inactive),> 100 µM (inactive),> 100 µM (inactive),> 100 µM (inactive),,> 100 µM (inactive),> 100 µM (inactive),> 100 µM (inactive),> 100,> 100 µM (inactive),> 100 µM (inactive)
COc1ccc2c(C3(O)CCNCC3)c[nH]c2c1,> 100 µM (inactive),> 100 µM (inactive),> 100 µM (inactive),> 100 µM (inactive),> 100 µM (inactive),> 100 µM (inactive),,> 100 µM (inactive),> 100 µM (inactive),> 100 µM (inactive),,> 100 µM (inactive),> 100 µM (inactive),> 100,> 100 µM (inactive),
CC1(O)C(C)(O)C(C)(O)C1(C)O (stereo unspecified),> 100 µM (inactive),> 100 µM (inactive),> 100 µM (inactive),> 100 µM (inactive),,> 100 µM (inactive),> 100 µM (inactive),> 100 µM (inactive),> 100 µM (inactive),> 100 µM (inactive),> 100 µM (inactive),> 100 µM (inactive),> 100 µM (inactive),> 100,> 100 µM (inactive),
NC(CCc1ncc(C(=O)O)s1)C(=O)O (stereo unspecified),> 100 µM (inactive),> 100 µM (inactive),> 100 µM (inactive),,> 100 µM (inactive),> 100 µM (inactive),> 100 µM (inactive),> 100 µM (inactive),> 100 µM (inactive),> 100 µM (inactive),> 100 µM (inactive),> 100 µM (inactive),> 100 µM (inactive),> 100,> 100 µM (inactive),
O=c1c2cccnc2ncn1CCN1CCCC1,> 100 µM (inactive),> 100 µM (inactive),> 100 µM (inactive),> 100 µM (inactive),,> 100 µM (inactive),,> 100 µM (inactive),> 100 µM (inactive),> 100 µM (inactive),> 100 µM (inactive),> 100 µM (inactive),> 100 µM (inactive),,> 100 µM (inactive),> 100 µM (inactive)
O=C1Nc2ccc(Br)cc2/C1=N/Nc1ccc([N+](=O)[O-])cc1[N+](=O)[O-],3.08 µM (inactive),5.47 µM (inactive),3.91 µM (inactive),2.13 µM (inactive),2.81 µM (inactive),1.73 µM (inactive),,10.2 µM (inactive),4.1 µM (inactive),1.98 µM (inactive),,13.9 µM (inactive),2.82 µM (inactive),3.12,4.15 µM (inactive),2.86 µM (inactive)
O=C(c1ccccc1)c1c(CC(O)c2ccccn2)n(C(=O)c2ccccc2)c2ccccc12 (stereo unspecified),18.6 µM (inactive),25.3 µM (inactive),20.2 µM (inactive),14.9 µM (inactive),21.3 µM (inactive),,,31.5 µM (inactive),8.04 µM (inactive),18.9 µM (inactive),20.5 µM (inactive),36.6 µM (inactive),26.7 µM (inactive),23.4,,15.1 µM (inactive)
O=C(/C(=N/Nc1ccccc1)c1ccc([N+](=O)[O-])cc1)c1ccc([N+](=O)[O-])cc1,> 100 µM (inactive),> 100 µM (inactive),32.1 µM (inactive),> 100 µM (inactive),93.3 µM (inactive),,,> 100 µM (inactive),85.5 µM (inactive),46.2 µM (inactive),,> 100 µM (inactive),> 100 µM (inactive),39,> 100 µM (inactive),> 100 µM (inactive)
COc1ccc2c(=O)c(C)c(-c3ccccc3)oc2c1CN(C)C [DIMEFLINE],> 100 µM (inactive),> 100 µM (inactive),> 100 µM (inactive),,> 100 µM (inactive),> 100 µM (inactive),> 100 µM (inactive),> 100 µM (inactive),,> 100 µM (inactive),> 100 µM (inactive),> 100 µM (inactive),> 100 µM (inactive),,> 100 µM (inactive),> 100 µM (inactive)
C=C1C[C@]23C[C@@]1(O)CC[C@H]2[C@@]12C=C[C@H](O)[C@@](C)(C(=O)O1)[C@H]2[C@@H]3C(=O)O [GIBBERELLIN A3],> 100 µM (inactive),> 100 µM (inactive),> 100 µM (inactive),> 100 µM (inactive),> 100 µM (inactive),> 100 µM (inactive),,> 100 µM (inactive),> 100 µM (inactive),> 100 µM (inactive),> 100 µM (inactive),> 100 µM (inactive),,> 100,> 100 µM (inactive),> 100 µM (inactive)
